US20260317340A1, “COMPOUNDS, COMPOSITIONS, AND METHODS OF TREATING DISORDERS” (Chengdu Anticancer Bioscience, Ltd., priority 2023, published 2026)
Read-outs that look alike come from different tables or passages of the source.

Tests used:
RPE-Neo or RPE-MYC cells = assay: MTT assay of cellular proliferation (proliferative arrest); type: cell-based; details: read-out: Min. Effective conc. for Proliferative arrest (>50%)
Protocol: (§1) Human cancer cell lines were obtained from ATCC and cultured in DMEM (Gibco, Cleveland, TN, USA) supplemented with 5% fetal bovine serum (Gibco), penicillin (100 U/mL)-streptomycin (100 μg/mL) (Gibco, Cat. No. 15140-122), 2 mM L-glutamine (Gibco, 200 mM solution, Cat. No. 25030081), and 1 mM sodium pyruvate (Gibco, 100 mM solution, Cat. No. 11360070) at 37° C. in a humidified incubator that was maintained at 5% CO2.
Screening was conducted as described before (Li et al. 2019). Briefly, RPE-Neo or RPE-MYC or RPE-MYC expressing an EGFP-Histone 2B fusion protein were passaged as batches of 96-well plates, 18-24 hours before exposure to the chemical compounds of the present disclosure at concentrations from 20 nM to 20 μM. At 24, 48 or 72 hours after initiation of treatment, cells were analyzed for either an arrest in mitosis or a change in DNA content by GE IN-Cell Analyzer 2000. MTT assays of cellular proliferation were performed as previously described (Li et al. 2019). […]
(§2) As set forth in table 2 below, an values of greater than or equal to 1 nM and less than or equal to 1.0 μM is marked “A”; a value greater than 1.00 μM and less than or equal to 10.0 μM is marked “B”; a value greater than 10.0 μM and less than or equal to 30.0 μM is marked “C”; and a value greater than 30.0 μM and less than 1000 μM is marked “D.”

[1] = test system: RPE-Neo or RPE-MYC or RPE-MYC expressing an EGFP-Histone 2B fusion protein; assay: Phenotypic screening assay: arrest in mitosis, change in DNA content (polyploidy), cell death; type: cell-based; details: 20 nM to 20 μM, 24, 48 or 72 hours
Protocol: as §1
Screening was conducted as described before (Li et al. 2019). Briefly, RPE-Neo or RPE-MYC or RPE-MYC expressing an EGFP-Histone 2B fusion protein were passaged as batches of 96-well plates, 18-24 hours before exposure to the chemical compounds of the present disclosure at concentrations from 20 nM to 20 μM. At 24, 48 or 72 hours after initiation of treatment, cells were analyzed for either an arrest in mitosis or a change in DNA content by GE IN-Cell Analyzer 2000. MTT assays of cellular proliferation were performed as previously described (Li et al. 2019).
as §2

[2] = read-out: Min. Effective conc. for Along with Cell Death
[3] = ≥5%, read-out: Min. Effective conc. for Mitotic Arrest (≥5%)
[4] = ≥5%, read-out: Min. Effective conc. for Polyploidy (≥5%)

## COc1ccc(CN2C(=O)CC(c3nnc(C)o3)=C(Br)c3ccccc32)cc1 [Compound 9, 5-Bromo-1-(4-methoxybenzyl)-4-(5-methyl-1,3,4-oxadiazol-2-yl)-1,3-dihydro-2H-benzo[b]azepin-2-one]
RPE-Neo or RPE-MYC cells
  minimal effective concentration: 0.001 to 1 µM
[1]; [2]
  minimal effective concentration: 0.001 to 1 µM
[1]; [3]
  minimal effective concentration: 0.001 to 1 µM
[1]; [4]
  minimal effective concentration: 0.001 to 1 µM

## COc1ccc(CN2C(=O)CC(c3nnc(N)s3)=C(Br)c3ccccc32)cc1 [Compound 10, 4-(5-Amino-1,3,4-thiadiazol-2-yl)-5-bromo-1-(4-methoxybenzyl)-1,3-dihydro-2H-benzo[b]azepin-2-one]
RPE-Neo or RPE-MYC cells
  minimal effective concentration: 0.001 to 1 µM
[1]; [2]
  minimal effective concentration: 0.001 to 1 µM
[1]; [3]
  minimal effective concentration: 0.001 to 1 µM
[1]; [4]
  minimal effective concentration: 0.001 to 1 µM

## COc1ccc(CN2C(=O)CC(c3ncc(C)o3)=C(Br)c3ccccc32)cc1 [Compound 11, 5-Bromo-1-(4-methoxybenzyl)-4-(5-methyloxazol-2-yl)-1,3-dihydro-2H-benzo[b]azepin-2-one]
RPE-Neo or RPE-MYC cells
  minimal effective concentration: 0.001 to 1 µM
[1]; [2]
  minimal effective concentration: 0.001 to 1 µM
[1]; [3]
  minimal effective concentration: 0.001 to 1 µM
[1]; [4]
  minimal effective concentration: 0.001 to 1 µM

## COC(=O)C1=Cc2ccccc2N(Cc2ccc(C)c(F)c2)C(=O)C1 [Compound 12, methyl 1-(3-fluoro-4-methylbenzyl)-2-oxo-2,3-dihydro-1H-benzo[b]azepine-4-carboxylate]
RPE-Neo or RPE-MYC cells
  minimal effective concentration: 0.001 to 1 µM
[1]; [2]
  minimal effective concentration: 0.001 to 1 µM
[1]; [3]
  minimal effective concentration: 0.001 to 1 µM
[1]; [4]
  minimal effective concentration: 0.001 to 1 µM

## Cc1ccc(CN2C(=O)CC(c3nnc(C4CC4)o3)=Cc3ccccc32)cc1F [Compound 13, 4-(5-cyclopropyl-1,3,4-oxadiazol-2-yl)-1-(3-fluoro-4-methylbenzyl)-1,3-dihydro-2H-benzo[b]azepin-2-one]
RPE-Neo or RPE-MYC cells
  minimal effective concentration: 0.001 to 1 µM
[1]; [2]
  minimal effective concentration: 0.001 to 1 µM
[1]; [3]
  minimal effective concentration: 0.001 to 1 µM
[1]; [4]
  minimal effective concentration: 0.001 to 1 µM

## COc1ccc(CN2C(=O)CC(c3nnco3)=Cc3ccc(Br)cc32)cc1 [Compound 14, 8-bromo-1-(4-methoxybenzyl)-4-(1,3,4-oxadiazol-2-yl)-1,3-dihydro-2H-benzo[b]azepin-2-one]
RPE-Neo or RPE-MYC cells
  minimal effective concentration: 0.001 to 1 µM
[1]; [2]
  minimal effective concentration: 0.001 to 1 µM
[1]; [3]
  minimal effective concentration: 0.001 to 1 µM
[1]; [4]
  minimal effective concentration: 0.001 to 1 µM

## COc1ccc(CN2C(=O)CC(c3nnc(C)o3)=Cc3ccc(Br)cc32)cc1 [Compound 15, 8-bromo-1-(4-methoxybenzyl)-4-(5-methyl-1,3,4-oxadiazol-2-yl)-1,3-dihydro-2H-benzo[b]azepin-2-one]
RPE-Neo or RPE-MYC cells
  minimal effective concentration: 1 to 10 µM
[1]; [2]
  minimal effective concentration: 1 to 10 µM
[1]; [3]
  minimal effective concentration: 1 to 10 µM
[1]; [4]
  minimal effective concentration: 1 to 10 µM

## COc1ccc(CN2C(=O)CC(c3nnc(C)o3)=Cc3ccc(-c4cnn(C)c4)cc32)cc1 [Compound 16, 1-(4-methoxybenzyl)-4-(5-methyl-1,3,4-oxadiazol-2-yl)-8-(1-methyl-1H-pyrazol-4-yl)-1,3-dihydro-2H-benzo[b]azepin-2-one]
RPE-Neo or RPE-MYC cells
  minimal effective concentration: 0.001 to 1 µM
[1]; [2]
  minimal effective concentration: 0.001 to 1 µM
[1]; [3]
  minimal effective concentration: 0.001 to 1 µM
[1]; [4]
  minimal effective concentration: 0.001 to 1 µM

## COc1ccc(CN2C(=O)CC3(c4ncc(C)o4)CC3c3ccc(Br)cc32)cc1 (stereo not shown) [Compound 17, 6-bromo-4-(4-methoxybenzyl)-1a-(5-methyloxazol-2-yl)-1a,2,4,8b-tetrahydrobenzo[b]cyclopropa[d]azepin-3(1H)-one]
RPE-Neo or RPE-MYC cells
  minimal effective concentration: 1 to 10 µM
[1]; [2]
  minimal effective concentration: 1 to 10 µM
[1]; [3]
  minimal effective concentration: 1 to 10 µM
[1]; [4]
  minimal effective concentration: 1 to 10 µM

## Cc1cnc(C2=Cc3ccccc3N(Cc3ccc(C)c(F)c3)C(=O)C2)o1 [Compound 18, 1-(3-fluoro-4-methylbenzyl)-4-(5-methyloxazol-2-yl)-1,3-dihydro-2H-benzo[b]azepin-2-one]
RPE-Neo or RPE-MYC cells
  minimal effective concentration: 0.001 to 1 µM
[1]; [2]
  minimal effective concentration: 0.001 to 1 µM
[1]; [3]
  minimal effective concentration: 0.001 to 1 µM
[1]; [4]
  minimal effective concentration: 0.001 to 1 µM

## Cc1cnc(C2=Cc3ccc(Br)cc3N(Cc3ccc(C)c(F)c3)C(=O)C2)o1 [Compound 19, 8-bromo-1-(3-fluoro-4-methylbenzyl)-4-(5-methyloxazol-2-yl)-1,3-dihydro-2H-benzo[b]azepin-2-one]
RPE-Neo or RPE-MYC cells
  minimal effective concentration: 0.001 to 1 µM
[1]; [2]
  minimal effective concentration: 0.001 to 1 µM
[1]; [3]
  minimal effective concentration: 0.001 to 1 µM
[1]; [4]
  minimal effective concentration: 0.001 to 1 µM

## Cc1cnc(C2=Cc3ccc(-c4cnn(C)c4)cc3N(Cc3ccc(C)c(F)c3)C(=O)C2)o1 [Compound 20, 1-(3-fluoro-4-methylbenzyl)-8-(1-methyl-1H-pyrazol-4-yl)-4-(5-methyloxazol-2-yl)-1,3-dihydro-2H-benzo[b]azepin-2-one]
RPE-Neo or RPE-MYC cells
  minimal effective concentration: 0.001 to 1 µM
[1]; [2]
  minimal effective concentration: 0.001 to 1 µM
[1]; [3]
  minimal effective concentration: 0.001 to 1 µM
[1]; [4]
  minimal effective concentration: 0.001 to 1 µM

## Cc1cnc(C2=Cc3ccc(-c4cnn(C5CC5)c4)cc3N(Cc3ccc(C)c(F)c3)C(=O)C2)o1 [Compound 21, 8-(1-Cyclopropyl-1H-pyrazol-4-yl)-1-(3-fluoro-4-methylbenzyl)-4-(5-methyloxazol-2-yl)-1,3-dihydro-2H-benzo[b]azepin-2-one]
RPE-Neo or RPE-MYC cells
  minimal effective concentration: 0.001 to 1 µM
[1]; [2]
  minimal effective concentration: 0.001 to 1 µM
[1]; [3]
  minimal effective concentration: 0.001 to 1 µM
[1]; [4]
  minimal effective concentration: 0.001 to 1 µM

## Cc1cnc(C2=Cc3ccc(-c4cn[nH]c4)cc3N(Cc3ccc(C)c(F)c3)C(=O)C2)o1 [Compound 22, 1-(3-fluoro-4-methylbenzyl)-4-(5-methyloxazol-2-yl)-8-(1H-pyrazol-4-yl)-1,3-dihydro-2H-benzo[b]azepin-2-one]
RPE-Neo or RPE-MYC cells
  minimal effective concentration: 0.001 to 1 µM
[1]; [2]
  minimal effective concentration: 0.001 to 1 µM
[1]; [3]
  minimal effective concentration: 0.001 to 1 µM
[1]; [4]
  minimal effective concentration: 0.001 to 1 µM

## Cc1cnc(C2=Cc3ccc(-c4cccnc4)cc3N(Cc3ccc(C)c(F)c3)C(=O)C2)o1 [Compound 23, 1-(3-fluoro-4-methylbenzyl)-4-(5-methyloxazol-2-yl)-8-(pyridin-3-yl)-1,3-dihydro-2H-benzo[b]azepin-2-one]
RPE-Neo or RPE-MYC cells
  minimal effective concentration: 0.001 to 1 µM
[1]; [2]
  minimal effective concentration: 0.001 to 1 µM
[1]; [3]
  minimal effective concentration: 0.001 to 1 µM
[1]; [4]
  minimal effective concentration: 0.001 to 1 µM

## COc1ccc(CN2C(=O)CC(c3ncc(C)o3)=Cc3ccccc32)cc1 [Compound 24, 1-(4-methoxybenzyl)-4-(5-methyloxazol-2-yl)-1,3-dihydro-2H-benzo[b]azepin-2-one]
RPE-Neo or RPE-MYC cells
  minimal effective concentration: 0.001 to 1 µM
[1]; [2]
  minimal effective concentration: 0.001 to 1 µM
[1]; [3]
  minimal effective concentration: 0.001 to 1 µM
[1]; [4]
  minimal effective concentration: 0.001 to 1 µM

## COc1ccc(CN2C(=O)CC(c3ncc(C)o3)=Cc3ccc(Br)cc32)cc1 [Compound 25, 8-bromo-1-(4-methoxybenzyl)-4-(5-methyloxazol-2-yl)-1,3-dihydro-2H-benzo[b]azepin-2-one]
RPE-Neo or RPE-MYC cells
  minimal effective concentration: 0.001 to 1 µM
[1]; [2]
  minimal effective concentration: 0.001 to 1 µM
[1]; [3]
  minimal effective concentration: 0.001 to 1 µM
[1]; [4]
  minimal effective concentration: 0.001 to 1 µM

## COc1ccc(CN2C(=O)CC(c3ncc(C)o3)=Cc3ccc(N)cc32)cc1 [Compound 26, 8-amino-1-(4-methoxybenzyl)-4-(5-methyloxazol-2-yl)-1,3-dihydro-2H-benzo[b]azepin-2-one]
RPE-Neo or RPE-MYC cells
  minimal effective concentration: 0.001 to 1 µM
[1]; [2]
  minimal effective concentration: 0.001 to 1 µM
[1]; [3]
  minimal effective concentration: 0.001 to 1 µM
[1]; [4]
  minimal effective concentration: 0.001 to 1 µM

## COc1ccc(CN2C(=O)CC(c3ncc(C)o3)=Cc3ccc(O)cc32)cc1 [Compound 27, 8-hydroxy-1-(4-methoxybenzyl)-4-(5-methyloxazol-2-yl)-1,3-dihydro-2H-benzo[b]azepin-2-one]
RPE-Neo or RPE-MYC cells
  minimal effective concentration: 0.001 to 1 µM
[1]; [2]
  minimal effective concentration: 0.001 to 1 µM
[1]; [3]
  minimal effective concentration: 0.001 to 1 µM
[1]; [4]
  minimal effective concentration: 0.001 to 1 µM
